pKi: −log10 of the molar value.
Molecular target: T1, human histamine 3 receptor (H3R) (Homo sapiens, UniProt Q9Y5N1)
T1 construct: expressed in transfected cells; membranes
Test: Histamine H3 Receptor Binding Assay (competitive inhibition SPA, [3H] α-methylhistamine, HEK293 H3R8 membranes)
From the text: The compounds of the present invention can readily be evaluated by using a competitive inhibition Scintillation Proximity Assay (SPA) based on a H3R binding assay using [3H] a methylhistamine as ligand. Stable cell lines, including but not limited to HEK can be transfected with cDNA coding for H3R to prepare membranes used for the binding assay. The technique is illustrated below (Preparation of Histamine Receptor Subtype Membranes) for the histamine receptor subtypes.
cDNA for the human histamine 3 receptor is cloned and expressed as described in (A. Preparation H1R membranes), above. Transfected cells are selected using G418 ([…]), grown, and tested for histamine binding by the SPA described above. For total binding, cells are assayed in a SPA reaction described above containing 50 mM Tris-HCL (assay buffer), pH 7.6, 1 mg wheat germ agglutinin SPA beads (Amersham Pharmacia Biotech, #RPNQ0001), and 1 nM (3H)-n-alpha-methylhistamine (NEN, NET1027) (total volume per well=200 μl). Thioperimide is added to determine non-specific binding. Several clones are selected as positive for binding, and a single clone (H3R8) is used to prepare membranes for binding studies described above. Five micrograms of protein is used per well in the SPA receptor-binding assay. […]

T1 sequence (Q9Y5N1 whole entry): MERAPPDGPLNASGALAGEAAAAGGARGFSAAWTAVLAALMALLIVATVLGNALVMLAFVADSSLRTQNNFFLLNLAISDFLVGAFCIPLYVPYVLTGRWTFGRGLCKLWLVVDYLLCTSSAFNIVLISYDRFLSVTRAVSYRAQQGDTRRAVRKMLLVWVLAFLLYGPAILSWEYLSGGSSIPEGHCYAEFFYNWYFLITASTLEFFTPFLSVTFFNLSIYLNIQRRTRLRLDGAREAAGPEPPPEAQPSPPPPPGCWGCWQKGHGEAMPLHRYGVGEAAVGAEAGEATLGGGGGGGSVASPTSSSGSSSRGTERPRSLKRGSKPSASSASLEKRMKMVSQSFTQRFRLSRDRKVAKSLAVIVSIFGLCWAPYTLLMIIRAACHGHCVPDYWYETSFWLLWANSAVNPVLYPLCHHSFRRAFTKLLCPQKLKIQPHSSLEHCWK

Compound | pKi
CCCCNc1ccc(C(=O)N2CCCC2CN2CCCC2)cc1 (centres unmarked) | 7.67
O=C(c1ccc(Sc2ccncn2)cc1)N1CCCC1CN1CCCC1 (centres unmarked) | 7.93

— patent US8008296B2, “Histamine H3 receptor agents, preparation and therapeutic uses” (Eli Lilly and Company, priority 2005, dated 2011)
